Tests used:
[1] = system: Human Bronchial Epithelial Cells; experiment: Absorption rate across human bronchial epithelial cells; type: in vitro ADME; conditions: n=3
Protocol: Bronchial cells (dog, human, sheep, or rodent cells) are seeded at a density of 0.25×10^6/cm^2 on a porous Transwell-Col collagen-coated membrane with a growth area of 1.13 cm^2 grown at an air-liquid interface in hormonally defined media that promotes a polarized epithelium. From 12 to 20 days after development of an air-liquid interface (ALI) the cultures are expected to be >90% ciliated, and mucins will accumulate on the cells. To ensure the integrity of primary airway epithelial cell preparations, the transepithelial resistance (R1) and transepithelial potential differences (PD), which are indicators of the integrity of polarized nature of the culture, are measured. […] Concentrations are determined by measuring intrinsic fluorescence of each sodium channel blocker using a Fluorocount Microplate Flourometer or HPLC. Quantitative analysis employs a standard curve generated from authentic reference standard materials of known concentration and purity. […]
In the first series of assays, the interaction of test compounds in KBR as an “ASL” stimulant are applied to the apical surface of human airway epithelial cells grown in the T-Col insert system. […] In instances where the fluorescence properties of the test molecule are not adequate for such characterizations, radiolabeled compounds are used for these assays. […]

[2] = Human plasma stability; type: in vitro ADME; conditions: over 4 hours
[3] = system: ExLac Rats; experiment: Phenol red thread (PRT) measurement of tear output in ExLac rats; type: in vivo, Sprague Dawley
Protocol: Procedures for Phenol Red Thread (PRT) Measurement of Tear Output:
Animal Species/Strain: Rats, Sprague Dawley (SD); Lacrimal gland surgically removed (ExLac).
Animal Number/Sex: 3-4 females/group
Test Article Formulation: All stock solutions for each dosing arm were prepared no more than 48 hours prior to the start of the study. The concentration of ENaC blockers in all test article solutions were confirmed by spectrophotometry.
Test Article Administration: Both the ipsilateral and contralateral eyes were dosed with 5 […]1 of test article solution.
Phenol Red Thread (PRT) Test: Tear production was measured using the ZoneQuick cotton thread with impregnated phenol red dye. The folded end of the thread was held in the lateral-ventral conjunctival cul-de-sac for 10 seconds. The length of tear wicking onto the thread was determined by measuring the length of the thread that changes color from yellow to red. Use of a stereomicroscope was assist in the accurate measurement (recorded in millimeters) of the wicking/color change.

[4] = Solubility and accelerated stability in citrate buffer; type: physicochemical; conditions: pH 4.2 citrate buffer with 2.8% NaCl
Protocol: (§1) • 1. 200 μL of 70% ACN (70% ACN, 30% H2O) was added into sample tubes which have threads in them. • 2. Tubes from Step 1 were vortexed for 30 seconds and sonicated for 1 minute to fully immerse the threads. • 3. The sample solutions were incubated for 4 hours at room temperature. • 4. Samples were vortexed again for 30 seconds. • 5. 75 μL, of the each sample solution (from step 4) was removed into 96-well UPLC plate with an additional 75 μL of mobile phase A (5 mM ammonium formate, 0.1% formic acid in H2O) added into each sample well. • 6. Analytical standards (10 mM, 1 mM, 100 µM, 10 µM, 1 µM, 100 nM, Buffer) were prepared identically to the thread solutions. • 7. Drug concentrations from all samples were analyzed by UPLC. Solubility and Stability Testing for Compound 15 (Formula I, aka I, aka P-1046, aka 1046): Procedure for Solubility and Stability Evaluation: • 1. Prepare 2.8% NaCl and 25 mM citrate buffer, pH of the solution 4.2. The osmolality of the solution is approximately 940 mOsM. • 2. Add appropriate amount of buffer solution to a test compound to make approximate concentration of 10 mg/mL. • 3. Vortex the solution for 15 seconds, sonicate for 30 seconds, again vortex for 60 seconds and visually observe the solution. • 4. Calculate final concentration of the solution by a spectrophotometer. • Remove a portion of solution and dilute it to 1:10 ratio. […]

[5] = system: Rat Hepatocyte; experiment: Rat hepatocyte metabolism; type: in vitro ADME; conditions: 24-hour incubation
[6] = system: Human Bronchial Epithelial; experiment: Metabolism by human bronchial epithelial cells; type: in vitro ADME; conditions: apical or basolateral
Protocol: Airway epithelial cells have the capacity to metabolize drugs during the process of transepithelial absorption. Further, although less likely, it is possible that drugs can be metabolized on airway epithelial surfaces by specific ectoenzyme activities. Perhaps more likely as an ecto-surface event, compounds may be metabolized by the infected secretions that occupy the airway lumens of patients with lung disease, e.g. cystic fibrosis. Thus, a series of assays is performed to characterize the compound metabolism that results from the interaction of test compounds with human airway epithelia and/or human airway epithelial lumenal products.
In the first series of assays, the interaction of test compounds in KBR as an “ASL” stimulant are applied to the apical surface of human airway epithelial cells grown in the T-Col insert system. For most compounds, metabolism (generation of new species) is tested for using high performance liquid chromatography (HPLC) to resolve chemical species and the endogenous fluorescence properties of these compounds to estimate the relative quantities of test compound and novel metabolites. […] In instances where the fluorescence properties of the test molecule are not adequate for such characterizations, radiolabeled compounds are used for these assays. […]

[7] = Clearance from the ocular surface (extraction from PRT threads, UPLC); type: in vivo, Rats, Sprague Dawley
Protocol: Procedure for P-1046 (Compound 15 Formula I, aka I, aka P-1046, aka 1046): […]
Extraction from PRT Threads:
All PRT threads were collected in eppendorf tubes and stored at −20 C until the time of drug concentration analysis. P-1046 was extracted from threads and analyzed as follows:
as §1, with “ratio. Put this solution at 50° C. for the accelerated stability study for 10 days. • Obtain stability data by HPLC analysis • 5. Prepare 2.8% NaCl and 25 mM citrate buffer, pH of the solution 4.2. The osmolality of the solution is approximately 940 mOsM. • 6. Add appropriate amount of buffer solution to a test compound to make approximate concentration of 10 mg/mL. • 7.” for “ratio.”

CN(C)C(=O)[C@H](CCCCNC(=N)N)NC(=O)[C@H](CCc1ccc(CCCCNC(=N)NC(=O)c2nc(Cl)c(N)nc2N)cc1)N(C)C [Compound I, 3,5-diamino-6-chloro-N-(N-(4-(4-((S)-3-(dimethylamino)-4-((S)-1-(dimethylamino)-6-guanidino-1-oxohexan-2-ylamino)-4-oxobutyl)phenyl)butyl)carbamimidoyl)pyrazine-2-carboxamide]
Absorption Rate Across Human Bronchial Epithelial Cells [1]: 0.12±0.05 nM/cm^2/min | Human Plasma Stability [2]: No metabolism detected | Tear output (PRT) in ExLac rats, duration of effect ([3]; 2 hours post-dose, all dose groups except 0.1 mM): still observed | Tear output (PRT) in ExLac rats ([3]; all concentrations, 15 minutes post-dose, n=4): increases tear output in ExLac rats 15 minutes post-dose at or slightly below tear output values observed for normal rats | Tear output, baseline corrected data, significance vs vehicle ([3]; single 10 mM dose, baseline corrected, p <0.03): statistically significant at all post-dose time points | Tear volume relative to vehicle controls ([3]; single 10 mM dose, n=3): increased tear volume relative to vehicle controls | Tear output, raw data, significance vs vehicle ([3]; single 10 mM dose, raw PRT values): not significant beyond 60 minutes | Stability (HPLC), degradation ([4]; 10 days at 50° C.): No degradation | solubility ([4]; aqueous buffer, thermodynamic from solid, highest concentration tested): ≥ 8800 µg/mL | Rat Hepatocyte Metabolism [5]: No evidence of significant metabolism | Metabolism by Human Bronchial Epithelial [6]: No metabolites detected | Clearance from the ocular surface, profile ([7]; all concentrations tested): apparent bi-phasic clearance | Concentration on ocular surface during the slow clearance phase vs IC50 ([7]; dosed concentration >1 mM, 30 to 120 minutes post-dose): well above the IC50 | Time by which the majority of the drug is cleared from the ocular surface ([7]; post-dose, followed by slow clearance phase 30 to 120 minutes): ≤ 30 min

Source: US10159672B2 (PARION SCIENCES, INC., priority 2011, dated 2018)
